Results on four compounds are retold here after PubChem BioAssay AID1259407 (Chemical Carcinogenesis Research Information System (CCRIS), 2018).

The source made the active and inactive calls. How the calls were made is not given here.

This series relates to CCRIS mutagenicity, Ames/micronucleus/aberration tests. Kind of series: CCRIS mutagenicity studies.

Take `CC1CS1` (stereo not given): the mutagenic call reads like this: (Test System: AMES SALMONELLA TYPHIMURIUM, Strain/Indicator: TA98, Metabolic Activation: HAMSTER, LIVER, S-9, AROCLOR 1254, Method: PREINCUBATION) “inactive; negative”; (Test System: AMES SALMONELLA TYPHIMURIUM, Strain/Indicator: TA98, Metabolic Activation: NONE, Method: PREINCUBATION) “inactive; negative”; (Test System: AMES SALMONELLA TYPHIMURIUM, Strain/Indicator: TA98, Metabolic Activation: RAT, LIVER, S-9, AROCLOR 1254, Method: PREINCUBATION) “inactive; negative”; (Test System: AMES SALMONELLA TYPHIMURIUM, Strain/Indicator: TA100, Metabolic Activation: HAMSTER, LIVER, S-9, AROCLOR 1254, Method: PREINCUBATION) “inactive; negative”; (Test System: AMES SALMONELLA TYPHIMURIUM, Strain/Indicator: TA100, Metabolic Activation: NONE, Method: PREINCUBATION) “inactive; negative”; (Test System: AMES SALMONELLA TYPHIMURIUM, Strain/Indicator: TA100, Metabolic Activation: RAT, LIVER, S-9, AROCLOR 1254, Method: PREINCUBATION) “inactive; negative”. The mutagenic call was “inactive; negative” (Test System: AMES SALMONELLA TYPHIMURIUM, Strain/Indicator: TA1535, Metabolic Activation: HAMSTER, LIVER, S-9, AROCLOR 1254, Method: PREINCUBATION); “inactive; negative” (Test System: AMES SALMONELLA TYPHIMURIUM, Strain/Indicator: TA1535, Metabolic Activation: NONE, Method: PREINCUBATION); “inactive; negative” (Test System: AMES SALMONELLA TYPHIMURIUM, Strain/Indicator: TA1535, Metabolic Activation: RAT, LIVER, S-9, AROCLOR 1254, Method: PREINCUBATION); “inactive; negative” (Test System: AMES SALMONELLA TYPHIMURIUM, Strain/Indicator: TA1537, Metabolic Activation: HAMSTER, LIVER, S-9, AROCLOR 1254, Method: PREINCUBATION); “inactive; negative” (Test System: AMES SALMONELLA TYPHIMURIUM, Strain/Indicator: TA1537, Metabolic Activation: NONE, Method: PREINCUBATION); “inactive; negative” (Test System: AMES SALMONELLA TYPHIMURIUM, Strain/Indicator: TA1537, Metabolic Activation: RAT, LIVER, S-9, AROCLOR 1254, Method: PREINCUBATION). Besides, the mutagenic call reads like this: (Test System: AMES SALMONELLA TYPHIMURIUM, Strain/Indicator: TA1538, Metabolic Activation: HAMSTER, LIVER, S-9, AROCLOR 1254, Method: PREINCUBATION) “inactive; negative”; (Test System: AMES SALMONELLA TYPHIMURIUM, Strain/Indicator: TA1538, Metabolic Activation: NONE, Method: PREINCUBATION) “inactive; negative”; (Test System: AMES SALMONELLA TYPHIMURIUM, Strain/Indicator: TA1538, Metabolic Activation: RAT, LIVER, S-9, AROCLOR 1254, Method: PREINCUBATION) “inactive; negative”; (Test System: MOUSE LYMPHOMA, Strain/Indicator: L5178Y (TK+/TK-), Metabolic Activation: NONE, Method: SUSPENSION/PLATE) “active; positive. reevaluation of results: positive”; (Test System: Mouse lymphoma, Strain/Indicator: L5178Y (tk+/tk-), Metabolic Activation: Rat, Liver, S-9, Aroclor 1254, Method: Suspension/plate) “active; equivocal (previous evaluation positive)”.
For the compound `CCCOS(=O)(=O)c1ccccc1`, the mutagenic call is “inactive; negative; positive only at highly/excessively cytotoxic doses” (End Point: IN VITRO MICRONUCLEUS, Test System: MOUSE LYMPHOMA L5178Y CELLS, Metabolic Activation: NONE); “inactive; negative; authors report results as weakly positive” (End Point: IN VITRO MICRONUCLEUS, Test System: MOUSE LYMPHOMA L5178Y CELLS, Metabolic Activation: RAT, LIVER, S-9); “active; positive” (Test System: AMES SALMONELLA TYPHIMURIUM, Strain/Indicator: TA100, Metabolic Activation: NONE, Method: STANDARD PLATE); “active; positive” (Test System: AMES SALMONELLA TYPHIMURIUM, Strain/Indicator: TA100, Metabolic Activation: RAT, LIVER, S-9, Method: STANDARD PLATE).
Take `C1=Cc2c3ccc4cccc5ccc(c6cccc1c26)c3c45`: the mutagenic call is, setting by setting: (Test System: AMES SALMONELLA TYPHIMURIUM, Strain/Indicator: TA98, Metabolic Activation: RAT, LIVER, S-9, AROCLOR 1254 (0.55 MG), Method: STANDARD PLATE) “active; positive”; (Test System: AMES SALMONELLA TYPHIMURIUM, Strain/Indicator: TA100, Metabolic Activation: RAT, LIVER, S-9, AROCLOR 1254 (0.55 MG), Method: STANDARD PLATE) “active; positive”; (Test System: AMES SALMONELLA TYPHIMURIUM, Strain/Indicator: TA104, Metabolic Activation: RAT, LIVER, S-9, AROCLOR 1254 (0.55 MG), Method: STANDARD PLATE) “active; positive”; (Test System: AMES SALMONELLA TYPHIMURIUM, Strain/Indicator: TA1535, Metabolic Activation: RAT, LIVER, S-9, AROCLOR 1254 (0.55 MG), Method: STANDARD PLATE) “inactive; negative”; (Test System: AMES SALMONELLA TYPHIMURIUM, Strain/Indicator: TA1537, Metabolic Activation: RAT, LIVER, S-9, AROCLOR 1254 (0.55 MG), Method: STANDARD PLATE) “active; positive”; (Test System: AMES SALMONELLA TYPHIMURIUM, Strain/Indicator: TA1538, Metabolic Activation: RAT, LIVER, S-9, AROCLOR 1254 (0.55 MG), Method: STANDARD PLATE) “active; positive”.
As to `CCOC(=O)NCCOc1ccc(Oc2ccccc2)cc1`, the mutagenic call is “inactive; negative” (Test System: Ames Salmonella typhimurium, Strain/Indicator: TA97, Metabolic Activation: None, Method: Plate incorporation); “inactive; negative” (Test System: Ames Salmonella typhimurium, Strain/Indicator: TA97, Metabolic Activation: None, Method: Preincubation); “inactive; negative” (Test System: Ames Salmonella typhimurium, Strain/Indicator: TA97, Metabolic Activation: Rat, Liver, S-9, Phenobarbital and beta-naphthoflavone, Method: Plate incorporation); “inactive; negative” (Test System: Ames Salmonella typhimurium, Strain/Indicator: TA97, Metabolic Activation: Rat, Liver, S-9, Phenobarbital and beta-naphthoflavone, Method: Preincubation); “inactive; negative” (Test System: Ames Salmonella typhimurium, Strain/Indicator: TA98, Metabolic Activation: None, Method: Plate incorporation); “inactive; negative” (Test System: Ames Salmonella typhimurium, Strain/Indicator: TA98, Metabolic Activation: None, Method: Preincubation). Moreover, the mutagenic call reads like this: (Test System: Ames Salmonella typhimurium, Strain/Indicator: TA98, Metabolic Activation: Rat, Liver, S-9, Phenobarbital and beta-naphthoflavone, Method: Plate incorporation) “inactive; negative”; (Test System: Ames Salmonella typhimurium, Strain/Indicator: TA98, Metabolic Activation: Rat, Liver, S-9, Phenobarbital and beta-naphthoflavone, Method: Preincubation) “inactive; negative”; (Test System: Ames Salmonella typhimurium, Strain/Indicator: TA100, Metabolic Activation: None, Method: Plate incorporation) “inactive; negative”; (Test System: Ames Salmonella typhimurium, Strain/Indicator: TA100, Metabolic Activation: None, Method: Preincubation) “inactive; negative”; (Test System: Ames Salmonella typhimurium, Strain/Indicator: TA100, Metabolic Activation: Rat, Liver, S-9, Phenobarbital and beta-naphthoflavone, Method: Plate incorporation) “inactive; negative”; (Test System: Ames Salmonella typhimurium, Strain/Indicator: TA100, Metabolic Activation: Rat, Liver, S-9, Phenobarbital and beta-naphthoflavone, Method: Preincubation) “inactive; negative”. The mutagenic call is, setting by setting: (Test System: Ames Salmonella typhimurium, Strain/Indicator: TA102, Metabolic Activation: None, Method: Plate incorporation) “inactive; negative”; (Test System: Ames Salmonella typhimurium, Strain/Indicator: TA102, Metabolic Activation: None, Method: Preincubation) “inactive; negative”; (Test System: Ames Salmonella typhimurium, Strain/Indicator: TA102, Metabolic Activation: Rat, Liver, S-9, Phenobarbital and beta-naphthoflavone, Method: Plate incorporation) “inactive; negative”; (Test System: Ames Salmonella typhimurium, Strain/Indicator: TA102, Metabolic Activation: Rat, Liver, S-9, Phenobarbital and beta-naphthoflavone, Method: Preincubation) “inactive; negative”; (Test System: Ames Salmonella typhimurium, Strain/Indicator: TA1535, Metabolic Activation: None, Method: Plate incorporation) “inactive; negative”; (Test System: Ames Salmonella typhimurium, Strain/Indicator: TA1535, Metabolic Activation: None, Method: Preincubation) “inactive; negative”. Further, the mutagenic call by setting is: (Test System: Ames Salmonella typhimurium, Strain/Indicator: TA1535, Metabolic Activation: Rat, Liver, S-9, Phenobarbital and beta-naphthoflavone, Method: Plate incorporation) “inactive; negative”; (Test System: Ames Salmonella typhimurium, Strain/Indicator: TA1535, Metabolic Activation: Rat, Liver, S-9, Phenobarbital and beta-naphthoflavone, Method: Preincubation) “inactive; negative”; (Test System: Ames Salmonella typhimurium, Strain/Indicator: TA1537, Metabolic Activation: None, Method: Plate incorporation) “inactive; negative”; (Test System: Ames Salmonella typhimurium, Strain/Indicator: TA1537, Metabolic Activation: None, Method: Preincubation) “inactive; negative”; (Test System: Ames Salmonella typhimurium, Strain/Indicator: TA1537, Metabolic Activation: Rat, Liver, S-9, Phenobarbital and beta-naphthoflavone, Method: Plate incorporation) “inactive; negative”; (Test System: Ames Salmonella typhimurium, Strain/Indicator: TA1537, Metabolic Activation: Rat, Liver, S-9, Phenobarbital and beta-naphthoflavone, Method: Preincubation) “inactive; negative”. The mutagenic call was “inactive; negative” (Test System: Ames Salmonella typhimurium, Strain/Indicator: TA1538, Metabolic Activation: None, Method: Plate incorporation); “inactive; negative” (Test System: Ames Salmonella typhimurium, Strain/Indicator: TA1538, Metabolic Activation: None, Method: Preincubation); “inactive; negative” (Test System: Ames Salmonella typhimurium, Strain/Indicator: TA1538, Metabolic Activation: Rat, Liver, S-9, Phenobarbital and beta-naphthoflavone, Method: Plate incorporation); “inactive; negative” (Test System: Ames Salmonella typhimurium, Strain/Indicator: TA1538, Metabolic Activation: Rat, Liver, S-9, Phenobarbital and beta-naphthoflavone, Method: Preincubation).
